Results published in patent US20260198495A1, “BINARY INSECTICIDE COMPOSITION AND USE THEREOF” (SHENYANG SINOCHEM AGROCHEMICALS R & D CO., LTD., priority 2022, published 2026).
Values after ≈ are worked out from the molar mass of the structure shown.

Tests used:
Assay type in all cases: in vivo
[1] = system: Bemisia tabaci (Gennadius) nymphs; assay: Joint toxicity of I-72 + bifenthrin, Example 40, Table 40; conditions: in Gossypium hirsutum, 96 h
Experimental: Test target: Bemisia tabaci (Gennadius) nymphs, a sensitive strain reared indoors.
(§1) Preparation of the pesticide solution: according to different test requirements, the test samples were accurately weighed respectively with an electronic analytical balance. The technical pesticides were dissolved in acetone, and then diluted with 0.1% Tween 80 water into a series of pesticide solutions with a certain concentration gradient according to the experimental design dosage.
(§2) Experimental method: first, cotton leaves with neat and consistent Bemisia tabaci (Gennadius) nymphs were selected and made into leaf disks, with about 20 insects on each leaf disk. Then, they were evenly sprayed with the pesticide solution in the order from low dosage to high dosage according to the experimental design, with 1.5 mL for each leaf and 3 replicates for each treatment. In addition, a blank control was set up.
(§3) The treated test materials were placed in an observation room, and the temperature, humidity and illumination of the observation room could be adjusted as needed. The number of dead and live insects was investigated 96 hours later. […] Then, the co-toxicity coefficient of each ratio was calculated using the Sun Y-P method to evaluate the mixing effect (the same as in Example 1).

[2] = system: 3rd-instar larvae of Ostrinia furnacalis Guenee; assay: Joint toxicity of I-72 + lambda-cyhalothrin, Example 42, Table 42; conditions: in Zea mays, 72 h
Experimental: Test target: 3rd-instar larvae of Ostrinia furnacalis Guenee.
as §1
(§4) Experimental method: first, tender corn stems were selected and dipped in the prepared pesticide solution for 10 s in the order from low dosage to high dosage according to the experimental design. After natural air-drying in the shade, they were placed in a 9-cm-diameter Petri dish with filter paper, and uniform and healthy test insects were introduced, with 10 insects for each treatment and 3 replicates for each treatment. In addition, a blank control was set up.
as §3, with “72” for “96”

[3] = system: 2nd-instar larvae of Chilo suppressalis (Walker); assay: Joint toxicity of I-72 + azadirachtin, Example 36, Table 36; conditions: in Oryza sativa, 72 h
Excerpt: Test target: 2nd-instar larvae of Chilo suppressalis (Walker). The insect source was collected from Nanchang, Jiangxi Province, and it is the 11th generation continuously cultured indoors, with a relatively high resistance level to amide pesticides such as chlorantraniliprole.
Experimental method: the spraying method was adopted. Rice stalks with the same length and thickness were selected, cut into the same length, and evenly sprayed with the pesticide solution in the order from low dosage to high dosage according to the experimental design, with 1.5 mL of the pesticide solution for each treatment. The stalks were placed in a 6-cm-diameter Petri dish with filter paper. After natural air-drying in the shade, uniform and healthy test insects were introduced, with 10 insects for each treatment and 4 replicates for each treatment. In addition, a blank control was set up. The number of dead and live insects was investigated 72 hours later. The corrected mortality rate was calculated using the Abbott's formula, and the DPS data processing software was used for statistical analysis to calculate the toxicities (LC50 values) of the single test pesticides and the mixtures under the test ratios.
(§5) The test conditions, the preparation of the pesticide solution and the evaluation method were the same as those in Example 1.

[4] = system: 2nd-instar larvae of Mythimna separata; assay: Joint toxicity of I-72 + beta-cyfluthrin, Example 41, Table 41; conditions: A = compound I-72, B = beta-cyfluthrin; corn leaf dipping; 72 hours
Experimental: Test target: 2nd-instar larvae of Mythimna separata.
as §1
as §4, with “first,” for “first, tender”, “leaves” for “stems”
as §3, with “72” for “96”

[5] = system: adult Phyllotreta vittuta Fabr.; assay: Joint toxicity of I-72 + deltamethrin, Example 45, Table 45; conditions: 72 h
Experimental: Test target: adult Phyllotreta vittuta Fabr.
as §1
Experimental method: first, uniform and consistent potted cabbage seedlings were selected. Then, uniform spraying was performed with the pesticide solution in the order from low dosage to high dosage according to the experimental design. After air-drying in the shade, adult flea beetles were transferred onto the treated cabbage seedlings, and then glass covers were put on them, with about 30-40 adult flea beetles on each seedling and 3 replicates for each treatment. In addition, a blank control was set up.
as §3, with “72” for “96”

[6] = system: Nilaparvata lugens (Stal) nymphs; assay: Joint toxicity of I-72 + etofenprox, Example 44, Table 44; conditions: in Oryza sativa, 72 h
Experimental: Test target: Nilaparvata lugens (Stal) nymphs, a sensitive strain reared indoors.
as §1
Experimental method: the activity of the mixture against the Nilaparvata lugens (Stal) nymphs was determined by adopting the potted-seedling spraying method. First, rice seedlings were planted in culture pots. Uniform spraying was performed with the pesticide solution in the order from low dosage to high dosage according to the experimental design, with 2 mL for each seedling. Then, Nilaparvata lugens nymphs of uniform size were transferred onto the rice seedlings, with 3 replicates for each treatment. In addition, a blank control was set up.
as §3, with “72” for “96”

[7] = system: adult Tetranychus cinnabarinus (Boisduval); assay: Joint toxicity of I-72 + fenpropathrin, Example 39, Table 39; conditions: 72 h
Experimental: Test target: adult Tetranychus cinnabarinus (Boisduval), a sensitive strain reared indoors.
as §1
Experimental method: the activity of the mixture against the adult Tetranychus cinnabarinus (Boisduval) was determined by adopting the potted-seedling spraying method. First, the adult Tetranychus cinnabarinus of uniform size were transferred onto the leaves of kidney bean seedlings at the stage when the first pair of true leaves was fully expanded. After the adult mites had stabilized, the base number was counted. Then, the uniform spraying was performed with the pesticide solution in the order from low to high dose according to the experimental design, with 1.5 mL for each seedling and 3 replicates for each treatment. […]
as §3, with “needed.” for “needed. The number of dead and live insects was investigated 96 hours later.”, “effect,” for “effect (the same”, “1.” for “1).”

[8] = system: second-instar larvae of Meloidogyne incognita; assay: In vitro joint toxicity of I-72 + fluopyram, 24-well plate, Example 32, Table 32; conditions: 48 h
Experimental: Test target: second-instar larvae of Meloidogyne incognita, a sensitive strain reared in a greenhouse.
as §1
Experimental method: the prepared pesticide solutions were added to a 24-well plate in the order from low dosage to high dosage according to the experimental design. In each well of each treatment, 50 nematodes were placed. Each drug had 5 concentrations set, with 3 replicates. After the treatment, the 24-well plate was placed in a constant temperature incubator at 25° C. In addition, a blank control group was set up. The number of dead and live insects was investigated 48 hours later. […] Then, the co-toxicity coefficient of each ratio was calculated using the Sun Y-P method to evaluate the mixing effect (the same as in Example 1).

[9] = system: mixed aphids of Myzus persicae (Sulzer); assay: Joint toxicity of I-72 + matrine, Example 34, Table 34; conditions: in Brassica oleracea, 48 h
Excerpt: Test subject: mixed aphids of Myzus persicae (Sulzer), a sensitive strain reared indoors.
Experimental method: the spraying method on leaves with aphids was adopted. Cabbage leaves with a certain number of Myzus persicae (Sulzer) were taken. The prepared pesticide solutions were evenly sprayed on both the front and back sides of the leaves in the order from low concentration to high concentration according to the experimental design. Then, the leaves were placed in a 6-cm-diameter Petri dish with filter paper. After natural air-drying in the shade, they were placed in the observation room. The experiment had 3 replicates set, and in addition, a blank control was set up. The number of dead and live insects was investigated 48 hours later. The corrected mortality rate was calculated using the Abbott's formula, and the DPS data processing software was used for statistical analysis to calculate the toxicities (LC50 values) of the single test pesticides and the mixtures under the test ratios.
as §5

[10] = system: adult Phyllotreta striolata (Walker); assay: Joint toxicity of I-72 + rotenone, insect dipping, Example 35, Table 35
Excerpt: Test target: adult Phyllotreta striolata (Walker), a strain reared indoors.
Experimental method: the dipping method was adopted. Adult flea beetles of uniform size were put into an insect-dipping cage and dipped for 10 s in the order from low dosage to high dosage according to the experimental design, with 30 beetles for each treatment. The beetles were placed in a 9-cm-diameter Petri dish with filter paper, with 3 replicates for each treatment. In addition, a blank control was set up. The treated test materials were placed in an observation room, and the temperature, humidity and illumination of the observation room could be adjusted as needed.
as §5

[11] = system: Aphis gossypii Glover nymphs; assay: Joint toxicity of I-72 + spiropidion, Example 28, Table 28; conditions: A = compound I-72, B = spiropidion; cotton leaf spraying; 48 hours
Experimental: Test target: Aphis gossypii Glover nymphs, a sensitive strain reared indoors.
as §1
as §2, with “uniform” for “neat”, “Aphis gossypii” for “Bemisia tabaci (Gennadius) nymphs”, “selected,” for “selected and made into leaf disks,”, “30-40” for “20”, “leaf.” for “leaf disk.”
as §3, with “48” for “96”

[12] = system: 2nd-instar larvae of Plutella xylostella; assay: Joint toxicity of I-72 + spiropidion, Example 31, Table 31; conditions: A = compound I-72, B = spiropidion; cabbage leaf dipping; 72 hours
Experimental: Test target: 2nd-instar larvae of Plutella xylostella.
as §1
as §4, with “cabbage leaves” for “tender corn stems”
as §3, with “72” for “96”

[13] = system: Unaspis yanonensis Kuwana nymphs; assay: whole plant or invertebrate; conditions: foliar, 120 h
Experimental: Test target: Unaspis yanonensis Kuwana nymphs.
as §1
Experimental method: the activity of the mixture against Unaspis yanonensis Kuwana nymphs on citrus was determined by adopting the dipping method. First, the collected citrus leaves with Unaspis yanonensis Kuwana nymphs were treated with the pesticide solution in the order from low dosage to high dosage according to the experimental design. After air-drying, the petioles were kept moist with degreased cotton, and then the leaves were placed in a Petri dish, with 3 replicates for each treatment. In addition, a blank control was set up.
The treated test materials were placed in an observation room, and the temperature, humidity and illumination of the observation room could be adjusted as needed. The number of dead and live insects was investigated 120 hours later.

[14] = system: Thrips flavus Schrank nymphs; assay: Joint toxicity of I-72 + spirotetramat, Example 26, Table 26; conditions: in Solanum melongena, 48 h
Experimental: Test target: Thrips flavus Schrank nymphs.
as §1
Experimental method: first, eggplant seedlings with Thrips flavus Schrank were selected, and the base number was counted. Then, uniform spraying was performed with the pesticide solution in the order from low to high doses according to the experimental design, with 2 mL for each seedling and 3 replicates for each treatment. In addition, a blank control was set up.
as §3, with “48” for “96”

[15] = system: adult Tetranychus urticae Koch; assay: Joint toxicity of I-72 + spirobudifen, Example 29, Table 29; conditions: 72 h
Experimental: as §1
In addition, a blank control was set up.
The treated test materials were placed in an observation room, and the temperature, humidity and illumination of the observation room could be adjusted as needed.

Cc1c(COC(=O)[C@@H]2[C@H](/C=C(\Cl)C(F)(F)F)C2(C)C)cccc1-c1ccccc1 (racemic) [bifenthrin]
LC50 [1]: 62.4 µg/mL

CC1(C)[C@H](C(=O)O[C@H](C#N)c2cccc(Oc3ccccc3)c2)[C@@H]1/C=C(\Cl)C(F)(F)F (racemic) [lambda-cyhalothrin]
LC50 [2]: 1.83 µg/mL

C/C=C(\C)C(=O)O[C@H]1C[C@@H](OC(C)=O)[C@@]2(C(=O)OC)CO[C@H]3[C@@H](O)[C@@](C)([C@]45O[C@@]4(C)[C@H]4C[C@@H]5O[C@@H]5OC=C[C@@]54O)[C@H]4[C@]1(CO[C@]4(O)C(=O)OC)[C@@H]32 [azadirachtin]
LC50 [3]: 22.5 µg/mL

CC1(C)C(C=C(Cl)Cl)C1C(=O)OC(C#N)c1ccc(F)c(Oc2ccccc2)c1 (stereo not drawn) [beta-cyfluthrin]
LC50 [4]: 1.0438 µg/mL

CC1(C)[C@H](C(=O)O[C@H](C#N)c2cccc(Oc3ccccc3)c2)[C@@H]1C=C(Br)Br [deltamethrin]
LC50 [5]: 6.76 µg/mL

CCOc1ccc(C(C)(C)COCc2cccc(Oc3ccccc3)c2)cc1 [etofenprox]
LC50 [6]: 25.4 µg/mL

CC1(C)C(C(=O)OC(C#N)c2cccc(Oc3ccccc3)c2)C1(C)C (stereo not drawn) [fenpropathrin]
LC50 [7]: 5.52 µg/mL

O=C(NCCc1ncc(C(F)(F)F)cc1Cl)c1ccccc1C(F)(F)F [fluopyram]
LC50 [8]: 0.609 µg/mL

O=C1CCC[C@@H]2[C@H]3CCCN4CCC[C@@H](CN12)[C@@H]34 [matrine]
LC50 [9]: 3.24 µg/mL

C=C(C)[C@H]1Cc2c(ccc3c2O[C@@H]2COc4cc(OC)c(OC)cc4[C@@H]2C3=O)O1 [rotenone]
LC50 [10]: 19.5 µg/mL

CCOC(=O)OC1=C(c2c(C)cc(Cl)cc2C)C(=O)N(C)C12CCN(OC)CC2 [spiropidion]
LC50 [11]: 4.8686 µg/mL
LC50 [12]: 631.4873 µg/mL

CCOC(=O)OC1=C(c2cc(C)ccc2C)C(=O)N[C@]12CC[C@@H](OC)CC2 [spirotetramat]
LC50 [13]: 8.91 µg/mL (≈ 23.9 µM)
LC50 [14]: 12.3 µg/mL
LC50 [15]: 8.2 µg/mL
